The target in data set [1] is T1, SDF-1/CXCR4 (Homo sapiens (Human), UniProt P61073). Put plainly: IC50 vs SDF-1 (table of specific compounds). In kind it is binding.
Data set [2] in a line: Initial pharmacokinetic study in mice. It is filed as in vivo. To be noted: intraperitoneally (IP) and orally. The text has this:
(§1) Oral bioavailability and sustained plasma exposure was consistently observed in multiple species for certain compounds.

A further data set has as its target hERG channel (IKr) (Homo sapiens (Human), UniProt Q12809). Put plainly: hERG channel current (IKr) inhibition. It is filed as biochemical. To be noted: human; 1 μM; read-out: inhibition of hERG channel currents. Here is the method: (§2) Sufficiently scorable cells in the presence of S9 were available for 4 hour treatment and in the absence of S9 for a 20 hour treatment. Finally, MSX-122 was tested for its potential to interfere with the rapid delayed rectifier current (IKr) in human ventricles through the cardiac potassium channel, hERG since inhibition of IKr has been reported to be the most common cause of cardiac action potential prolongation by non-cardiac drugs.

Another data set concerns the target hERG channel (Homo sapiens (Human), UniProt Q12809). The data set can be described thus: hERG channel current (IKr) inhibition. In kind it is biochemical. The protocol:
as §2

Data set [3] in a line: 5-day repeat dose study in cynomolgus monkeys. It is filed as in vivo. The protocol:
(§3) In initial studies, three groups of rats (5 males and 5 females per group) were dosed with 0, 250 and 600 mg/kg of MSX-122 orally once per day for 28 days. […] A 5-day repeat dose study was carried out in two non-naïve cynomolgus monkeys (1 male and 1 female) and two naïve cynomolgus monkeys (1 male and 1 female) dosed with 1,000 and 2,000 mg/kg, respectively, orally once per day for 5 days.

Data set [4] has as its target SDF-1 binding domain of CXCR4 (Homo sapiens (Human), UniProt P61073). Put plainly: Competitive binding assay against biotin-labeled TN14003. To be noted: competition with biotin-labeled TN14003; read-out: Effective concentrations (EC50). The text has this:
Aa competitive binding assay using biotin-labeled TN14003 and streptavidin-conjugated rhodamine was developed to determine the binding efficiency of new chemical entities to the SDF-1 binding domain of CXCR4.

A further data set in a line: In vitro Ames test. In kind it is cell-based.
Data set [5] in a line: Pharmacokinetic study in rats. It is filed as in vivo. To be noted: 10 mg/kg.
Source text: as §1

Another data set deals with CHO cells. Put plainly: In vitro chromosome aberration screening test. In kind it is cell-based. To be noted: any dose level up to 2 mM, 4 hour with S9, 20 hour without S9. Here is the method:
as §2

A further data set concerns hot flashes. The data set can be described thus: Treatment of hot flashes in a patient. It is filed as in vivo, human. To be noted: person, 50 mg/day oral, after third treatment. Here is the method: An approximately 70 kg person with a history of aggressive high grade serous carcinomy in their right fallopian tube, a complete hysterectomy and bilateral oophorectomy after previous treatments with VEGF-Trap and docetaxel, Carboplatin and taxol and doxil was treated with MSX-122, 50 mg/day oral.

The nature of data set [6]: 28-day oral toxicology study in rats. To be noted: 250 and 600 mg/kg orally once per day for 28 days. It is filed as in vivo. Here is the method:
as §3

In data set [7] the target is T1, SDF-1/CXCR4. The data set can be described thus: cAMP assay (SDF-1/CXCR4-mediated cAMP reduction). It is filed as cell-based. To be noted: for concentration effective in counteracting/blocking SDF-1 function: cAMP reduction by SDF-1; for effect of SDF-1 on cAMP reduction: pre-treatment with compound, SDF-1 EC80 150 ng/ml. The protocol: Because the major signaling pathway of CXCR4/SDF-1 involves the pertussis toxin-sensitive G protein Gi, compounds described herein were tested as to whether they inhibited SDF-1/CXCR4-mediated cAMP reduction. The absorption increase at 665 nm was determined by varying the concentration of SDF-1 (0-200 ng/ml) to determine EC80 to be 150 ng/ml.

The nature of data set [8]: Pharmacokinetic/pharmacodynamic study in cynomolgus monkeys. It is filed as in vivo.
Source text: as §1

Where [9] appears, read: cynomolgus monkeys, 1,000 and 2,000 mg/kg orally once per day for 5 days.
The mark [10] stands for this setting: cynomolgus monkeys, oral 5 and 10 mg/kg.

Where “and” joins values, the source holds several entries; their conditions need not be identical. Equal values may be shown once.

T1 sequence (P61073 whole entry): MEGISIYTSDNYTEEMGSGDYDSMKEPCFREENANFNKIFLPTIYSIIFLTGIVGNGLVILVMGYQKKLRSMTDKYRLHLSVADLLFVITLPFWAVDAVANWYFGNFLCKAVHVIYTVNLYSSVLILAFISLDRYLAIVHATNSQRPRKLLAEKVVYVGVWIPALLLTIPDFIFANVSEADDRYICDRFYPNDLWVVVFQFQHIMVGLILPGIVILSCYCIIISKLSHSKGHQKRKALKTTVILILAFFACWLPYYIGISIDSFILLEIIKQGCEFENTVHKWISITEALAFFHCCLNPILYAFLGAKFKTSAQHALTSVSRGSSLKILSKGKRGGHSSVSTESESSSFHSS
Chain of SDF-1 binding domain of CXCR4 (P61073 whole entry, the tested form may be a part): as the sequence (P61073 whole entry) above
Chain of hERG channel (Q12809 whole entry): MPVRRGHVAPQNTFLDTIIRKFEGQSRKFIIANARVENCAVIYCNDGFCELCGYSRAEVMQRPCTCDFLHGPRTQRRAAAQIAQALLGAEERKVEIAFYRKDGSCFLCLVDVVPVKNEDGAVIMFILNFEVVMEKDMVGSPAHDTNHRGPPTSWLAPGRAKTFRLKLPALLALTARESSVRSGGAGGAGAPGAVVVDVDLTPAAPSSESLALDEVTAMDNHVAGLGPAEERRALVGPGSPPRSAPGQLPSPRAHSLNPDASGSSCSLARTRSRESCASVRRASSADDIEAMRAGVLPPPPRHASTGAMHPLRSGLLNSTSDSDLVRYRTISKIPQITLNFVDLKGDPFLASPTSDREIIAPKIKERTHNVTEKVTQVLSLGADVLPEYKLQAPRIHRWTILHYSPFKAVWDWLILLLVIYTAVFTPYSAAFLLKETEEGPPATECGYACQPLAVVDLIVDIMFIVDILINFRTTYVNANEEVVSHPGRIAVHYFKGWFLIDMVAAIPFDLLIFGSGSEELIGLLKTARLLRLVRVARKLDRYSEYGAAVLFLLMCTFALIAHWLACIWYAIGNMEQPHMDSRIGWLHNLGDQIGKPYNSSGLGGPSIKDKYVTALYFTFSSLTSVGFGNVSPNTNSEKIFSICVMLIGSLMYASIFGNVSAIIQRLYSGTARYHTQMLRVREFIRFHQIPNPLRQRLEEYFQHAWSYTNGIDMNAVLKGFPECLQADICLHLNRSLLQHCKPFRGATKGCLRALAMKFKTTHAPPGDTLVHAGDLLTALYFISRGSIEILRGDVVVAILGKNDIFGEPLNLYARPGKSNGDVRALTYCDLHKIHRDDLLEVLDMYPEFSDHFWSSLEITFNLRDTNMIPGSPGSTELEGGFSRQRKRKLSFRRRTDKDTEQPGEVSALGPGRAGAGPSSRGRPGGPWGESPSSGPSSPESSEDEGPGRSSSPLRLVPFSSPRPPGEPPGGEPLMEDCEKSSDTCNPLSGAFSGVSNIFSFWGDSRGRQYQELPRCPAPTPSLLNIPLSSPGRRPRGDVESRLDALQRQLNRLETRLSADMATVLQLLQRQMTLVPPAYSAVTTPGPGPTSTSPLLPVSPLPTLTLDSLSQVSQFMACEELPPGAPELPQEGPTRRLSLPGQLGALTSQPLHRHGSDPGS
Chain of hERG channel (IKr) (Q12809 whole entry): as above

On SDF-1/CXCR4 [1], `c1cncc(NCc2ccc(CNc3cccnc3)cc2)c1` [MSX-163] registered an IC50 of 10 nM.
The same measure, in the same setting: as for `Clc1nc(Cl)nc(NCc2ccc(CNc3nc(Cl)nc(Cl)n3)cc2)n1` [MSX-190], the figure is 10 nM.
On to `c1cnc(NCc2ccc(CNc3ncccn3)cc2)nc1` [MSX-122, N-(4-((pyrimidin-2-ylamino)methyl)benzyl)-pyrimidin-2-amine], for which the blood levels result in data set [2] is recorded as “sustained blood levels”. Also, the inhibition at 1 µM at hERG channel (IKr) turned out to be 0.2%. For the same compound, the “inhibitory effect on hERG channel currents” value on hERG channel was “do not exert a significant inhibitory effect”. Moreover, the Cmax in data set [3] (both sexes, cynomolgus monkey, in vivo, po, cynomolgus monkeys, 1,000 and 2,000 mg/kg orally once per day for 5 days) was 5.1 µM to 12 µM and 1500 ng/mL to 3500 ng/mL. The gross necropsy result in [3] (cynomolgus monkeys dosed at 2000 mg/kg) is “no abnormalities or signs of toxicity”. Also, in data set [3] (setting [9]), the blood serum chemistry entry is “no abnormalities”, the “plasma concentrations maintained throughout the study” value is recorded as “micromolar” and the “signs or symptoms of toxicity” value is “No drug-related signs or symptoms of toxicity”. Besides, in data set [3] (cynomolgus monkeys, 1,000 and 2,000 mg/kg, may have been caused by excipients), the “clinical observations (stool)” value was “loose and watery stool in a subset of the animals”. Moreover, the EC50 in data set [4] turned out to be 0.6 nM. Besides, the mutagenicity entry in the data set “In vitro Ames test” is given as “no evidence of mutagenicity”. For the same compound, the plasma levels result in [5] (for 10 hours) was “above 100 ng/ml and > 342 nM”. Besides, in data set [5] (rat, plasma, oral, read-out: initial Tmax (converted)), the time to peak (Tmax) was about 30 min. The “structural or numerical chromosome aberrations” value in the data set with CHO cells was “no statistically significant increase in structural or numerical chromosome aberrations”. For the same compound, the hot flashes result with hot flashes is on record as “resolved greatly”. In addition, in [6], the “signs or symptoms of toxicity during the study” value is recorded as “No signs or symptoms of toxicity” and the “toxicity upon termination from blood serum chemistry or gross necropsy” value is listed as “no toxicity was observed”. Further, in data set [6] (after day 1), the “plasma concentrations maintained throughout the study” value is on record as “micromolar”. Also, the Cmax in data set [6] (both sexes, rat, in vivo, po) was 2000 ng/mL to 4000 ng/mL and 6.8 µM to 13.6 µM. For the same compound, at SDF-1/CXCR4 [7], the “concentration effective in counteracting/blocking SDF-1 function” value is reported as 10 nM and the “effect of SDF-1 on cAMP reduction” value is listed as “blocked significantly in a dose-dependent manner”. In [8] (setting [10]), the half lives result is recorded as “support once per day dosing” and the plasma concentrations result is given as “micromolar”. Moreover, the “pharmacokinetics / dose proportionality of plasma levels” value in data set [8] (female cynomolgus monkeys, oral 1, 5 and 10 mg/kg) is on record as “sustained pharmacokinetics with plasma levels that were relatively dose proportional”.
At SDF-1/CXCR4 [1], `Cc1ccc(NCc2ccc(CNc3ccc(C)cc3)cc2)cc1` [MSX-139] showed a half-maximal inhibitory concentration (IC50) of 10 nM.
`c1ccc(NCCNCc2ccc(CNCCNc3ccccc3)cc2)cc1` [WZ8] had a melting point of 42 to 43 °C.
As for `c1ccc(NCc2ccc(CNc3ccccc3)cc2)cc1` [WZ13], the melting point lay within 126 to 127 °C.
Turning to `c1ccc(OCc2ccc(CNc3ncccn3)cc2)cc1` [MSX-209], the IC50 on SDF-1/CXCR4 [1] was determined as 10 nM.
On the same count and under the same terms, as for `COc1ccccc1NCc1ccc(CNc2ccccc2OC)cc1` [MSX-206], the figure is 10 nM; as for `c1ccc(SCc2ccc(CSc3ccccc3)cc2)cc1` [MSX-211], 1000 nM.
The same measure, in the same setting: as for `COCc1ccc(CNc2ncccn2)cc1` [MSX-208], the figure is 100 nM.
The same measure, in the same setting: as for `c1ccc(NCc2ccc(CNc3ccccc3)c3ccccc23)cc1` [MSX-175], the figure is over 100 nM.
Regarding `c1cc(CN2CCCNCCNCCCNCC2)ccc1CN1CCCNCCNCCCNCC1` [AMD-3100, reference compound], on SDF-1/CXCR4 [7], the “concentration effective in counteracting/blocking SDF-1 function” value is reported as about 1000 nM and the “effect of SDF-1 on cAMP reduction” value is “blocked significantly in a dose-dependent manner”.
Compound `Cc1c(C)c(CNc2ccccc2)c(C)c(C)c1CNc1ccccc1` [MSX-172] yielded a 50% inhibitory concentration (IC50) at SDF-1/CXCR4 [1] of 10 nM.
In turn, `c1ccc(NCCc2ccc(CCNc3ccccc3)cc2)cc1` [MSX-170] had a 50% inhibitory concentration (IC50) at SDF-1/CXCR4 [1] of under 100 nM.
`Clc1ccc(NCc2ccc(CNc3ncccn3)cc2)nc1` [MSX-219]: the 50% inhibitory concentration (IC50) against SDF-1/CXCR4 [1] amounted to 10 nM.
For `O=C(Nc1ccccc1)c1cc(C(=O)Nc2ccccc2)cc(C(=O)Nc2ccccc2)c1` [WZ20], the melting point was in the range of 318 to 320 °C.
On to `O=C(O)c1cccc(NCc2ccc(CNc3cccc(C(=O)O)c3)cc2)c1` [MSX-214], for which, at SDF-1/CXCR4 [1], the IC50 turned out to be 100 nM.
As for `c1ccc(OCc2ccc(CNc3ncccn3)cc2)nc1` [MSX-212], at SDF-1/CXCR4 [1], the IC50 was 100 nM.
As to `N=C(N)NCc1ccc(CNC(=N)N)cc1` [WZ5S], the melting point is 278 to 281 °C (dec.).

For the origin of these results see US9205085B2, “Tricyclic amino containing compounds for treatment or prevention of symptoms associated with endocrine dysfunction” (Emory University, priority 2011, dated 2015).
